Measurements taken from patent US11685744B2, “CDK inhibitors and their use as pharmaceuticals” (Prelude Therapeutics, Incorporated, priority 2020, dated 2023).
Like-named read-outs stand apart in the source and are kept apart here.

Experiments:
[1] = test system: MCF7 adenocarcinoma cell line; test: Cell proliferation studies in MCF7 cells (ATP-Lite, 10 days); assay type: cell-based; details: read-out: PROLIFERATION_CTG_MCF7 IC50
Description: Cell Proliferation Studies in MCF7 Cells
Cell proliferation studies were conducted in MCF7 adenocarcinoma cell line. Cells were maintained in DMEM (Coming, Catalog #: 10-013-CV) supplemented with 10% v/v FBS (Gibco, Catalog #: 26140-079), 1% v/v Penicillin Streptomycin (Gibco, Catalog #15140-122) Cells were seeded in 384-well plates at a density of 100 or 200 cells/well. Compounds dissolved in DMSO were plated in quadruplicate using a digital dispenser (D300E, Tecan) and tested on a 9-point 3-fold serial dilution. Cells were incubated for 10 days in a 37° C. active humidified incubator at 5% CO2. A media exchange and second compound addition were performed on day 5. Cell viability was measured using the ATP-Lite 1-Step Luminescence reagent (Perkin Elmer, Catalog #: 6016731) as per manufacturer's instructions. Luminescence signal was measured with a multimode plate reader (Envision 2105, Perkin Elmer). Raw data files were imported to Dotmatics Screening Ultra for IC50 analysis. Luminescence values were normalized to both background and DMSO controls to obtain a percentage of viable cells relative to DMSO vehicle control.

CDK6/Cyclin D1 = CDK6/Cyclin D1 (Homo sapiens (Human), UniProt Q00534); test: CDK6/CyclinD1 enzymatic activity assay (TR-FRET); assay type: biochemical; details: ATP 250 μM, read-out: CDK6_D1 IC50
Chain of CDK6/Cyclin D1 (Q00534 whole entry): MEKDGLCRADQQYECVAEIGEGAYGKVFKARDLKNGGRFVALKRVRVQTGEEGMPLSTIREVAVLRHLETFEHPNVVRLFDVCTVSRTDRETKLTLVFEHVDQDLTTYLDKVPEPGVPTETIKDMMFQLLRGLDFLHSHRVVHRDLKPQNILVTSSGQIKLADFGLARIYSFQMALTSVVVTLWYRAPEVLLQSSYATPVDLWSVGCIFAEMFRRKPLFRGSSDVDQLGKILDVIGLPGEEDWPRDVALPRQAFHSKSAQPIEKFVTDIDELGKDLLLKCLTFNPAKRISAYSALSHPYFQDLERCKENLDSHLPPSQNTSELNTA
Chain of CDK6/Cyclin D1 (P24385 whole entry partner): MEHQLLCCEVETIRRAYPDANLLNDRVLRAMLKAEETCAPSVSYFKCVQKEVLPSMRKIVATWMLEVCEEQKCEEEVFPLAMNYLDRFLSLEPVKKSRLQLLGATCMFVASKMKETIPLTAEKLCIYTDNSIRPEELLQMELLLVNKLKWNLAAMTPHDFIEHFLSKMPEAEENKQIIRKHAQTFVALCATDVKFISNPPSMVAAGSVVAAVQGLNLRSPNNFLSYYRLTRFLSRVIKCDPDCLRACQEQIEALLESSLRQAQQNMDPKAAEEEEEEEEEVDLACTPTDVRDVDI
Description: CDK6/CyclinD1 Enzymatic Activity Assay
(§1) The inhibitory activity of compounds was evaluated in vitro using TR-FRET assay with white 384-well low volume microplate (Greiner Bio-One). CDK6/Cyclin D1 catalyzed phosphorylation of peptide in the presence and absence of compounds was measured and used in IC50 determination. Recombinant protein complex CDK6/Cyclin D1, expressed from insect cell, was purchased from ProQinase. Testing compounds were dissolved in DMSO at 0.1 mM and tested in 9-dose IC50 mode. The reaction mixture was prepared by mixing CDK6/Cyclin D1 (1 nM final), ULight-4E-BP1 (100 nM final, Perkinelmer, TRF0128-D), and ATP (250 μM final) in assay buffer (20 mM of HEPES pH 7.4, 1 mM of EGTA, 0.05% BSA, 0.005% Tween 20, and 1 mM TCEP). The compound of interest in DMSO was added to each well in 3-fold serial dilution by dispenser (TECAN D300E). After 20 minutes preincubation at room temperature, 0.1 μL MgCl2 (10 mM final) was added to initiate the reaction. Following a 60 minutes incubation at 37° C., the reaction was stopped by addition of 2 μL of quenching buffer consisting of Lance detection buffer (Perkinelmer CR97-100C), 2 nM LANCE Ultra Europium-anti-P-4E-BP1 (Perkinelmer, TRF0216-D), 10 mM EDTA, and incubate at room temperature for additional 60 minutes in dark. The reaction signal was measured by Envision multimode plate reader (PerkinElmer, 2102-0010). IC50 values were determined by fitting the data to the standard 4 parameters with Hill Slope using GraphPad Prism software.

CDK4/Cyclin D1 = CDK4/Cyclin D1 (Homo sapiens (Human), UniProt P11802); test: CDK4/CyclinD1 enzymatic activity assay (TR-FRET); assay type: biochemical; details: ATP 2 mM, read-out: CDK4_D1 IC50
Chain of CDK4/Cyclin D1 (P11802 whole entry): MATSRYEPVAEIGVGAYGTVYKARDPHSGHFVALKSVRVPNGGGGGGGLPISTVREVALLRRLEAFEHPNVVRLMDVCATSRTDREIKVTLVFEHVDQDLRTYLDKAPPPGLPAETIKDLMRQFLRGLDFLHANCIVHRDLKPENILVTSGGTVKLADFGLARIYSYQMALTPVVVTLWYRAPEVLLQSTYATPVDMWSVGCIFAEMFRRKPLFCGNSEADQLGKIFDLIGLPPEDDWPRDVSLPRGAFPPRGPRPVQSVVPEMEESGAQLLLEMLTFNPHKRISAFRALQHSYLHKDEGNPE
Chain of CDK4/Cyclin D1 (P24385 whole entry partner): as the sequence (P24385 whole entry partner) above
Description: CDK4/CyclinD1 Enzymatic Activity Assay
as §1, with “Bio-One). CDK4/Cyclin” for “Bio-One). CDK6/Cyclin”, “was measured.” for “was measured and used in”, “complex CDK4/Cyclin” for “complex CDK6/Cyclin”, “mixing CDK4/CyclinD1” for “mixing CDK6/Cyclin D1”, “ATP (2 mM” for “ATP (250 μM”, “temperature,” for “temperature, 0.1 μL”

IC50 [1]	IC50 (CDK6/Cyclin D1)	IC50 (CDK4/Cyclin D1)	IC50 ([1]; Homo sapiens, 240 h)	Compound
0.02 to 0.2 µM	≤ 0.02 µM	–	–	4-(2,6-Dimethyl-3-propan-2-ylthieno[2,3-d]imidazol-5-yl)-N-[5-(4-ethyl-6,6-difluoro-1,4-diazepan-1-yl)pyridin-2-yl]-5-fluoropyrimidin-2-amine [Example 68]
0.02 to 0.2 µM	≤ 0.02 µM	≤ 0.02 µM	–	Cc1c(-c2nc(Nc3ccc(C4CCCN(C)C4)cn3)ncc2F)sc2c1ncn2C(C)C (single isomer, unassigned) [Example 126, 5-Fluoro-N-[5-[-1-methylpiperidin-3-yl]pyridin-2-yl]-4-(6-methyl-3-propan-2-ylthieno[2,3-d]imidazol-5-yl)pyrimidin-2-amine]
–	0.02 to 0.2 µM	≤ 0.02 µM	0.02 to 0.2 µM	CCN1CCN(c2ccc(Nc3ncc(F)c(-c4cc5nccc(C(C)(C)O)c5s4)n3)nc2)CC1 [Example 17, 2-[2-[2-[[5-(4-Ethylpiperazin-1-yl)pyridin-2-yl]amino]-5-fluoropyrimidin-4-yl]thieno[3,2-b]pyridin-7-yl]propan-2-ol]
–	–	0.02 to 0.2 µM	0.2 to 2 µM	CN1CCC(c2ccc(Nc3ncc(F)c(-c4cc5c(C6CCCC6)ccnc5s4)n3)nc2)CC1 [Example 43, 4-(4-Cyclopentylthieno[2,3-b]pyridin-2-yl)-5-fluoro-N-(5-(1-methylpiperidin-4-yl)pyridin-2-yl)pyrimidin-2-amine]
–	–	0.02 to 0.2 µM	0.2 to 2 µM	CCN1CCN(c2ccc(Nc3ncc(F)c(-c4cc5c(C6CCCC6)ccnc5s4)n3)nc2)CC1 [Example 44, 4-(4-Cyclopentylthieno[2,3-b]pyridin-2-yl)-N-[5-(4-ethylpiperazin-1-yl)pyridin-2-yl]-5-fluoropyrimidin-2-amine]
–	–	0.02 to 0.2 µM	0.2 to 2 µM	CN1CCN(c2ccc(Nc3ncc(F)c(-c4cc5c(C6CCCC6)ccnc5s4)n3)nc2)CC1 [Example 45, 4-(4-Cyclopentylthieno[2,3-b]pyridin-2-yl)-5-fluoro-N-[5-(4-methylpiperazin-1-yl)pyridin-2-yl]pyrimidin-2-amine]
–	–	0.02 to 0.2 µM	0.2 to 2 µM	Fc1cnc(Nc2ccc(N3CCNCC3)cn2)nc1-c1cc2c(C3CCCC3)ccnc2s1 [Example 46, 4-(4-Cyclopentylthieno[2,3-b]pyridin-2-yl)-5-fluoro-N-(5-piperazin-1-ylpyridin-2-yl)pyrimidin-2-amine]
–	–	0.02 to 0.2 µM	0.2 to 2 µM	CCN1CC2(C1)CN(c1ccc(Nc3ncc(F)c(-c4cc5c(C6CCCC6)ccnc5s4)n3)nc1)C2 [Example 47, 4-(4-Cyclopentylthieno[2,3-b]pyridin-2-yl)-N-[5-(6-ethyl-2,6-diazaspiro[3.3]heptan-2-yl)pyridin-2-yl]-5-fluoropyrimidin-2-amine]
–	–	0.2 to 2 µM	0.2 to 2 µM	Cc1c(-c2nc(Nc3ccc(N4CCN(C)CC4)cn3)ncc2F)sc2c(C3CCCC3)nccc12 [Example 48, 4-(7-Cyclopentyl-3-methylthieno[2,3-c]pyridin-2-yl)-5-fluoro-N-(5-(4-methylpiperazin-1-yl)pyridin-2-yl)pyrimidin-2-amine]
–	–	0.2 to 2 µM	0.2 to 2 µM	Cc1c(-c2nc(Nc3ccc(C4CCN(C)CC4)cn3)ncc2F)sc2c(C3CCCC3)ncnc12 [Example 49, 4-(4-Cyclopentyl-7-methylthieno[3,2-d]pyrimidin-6-yl)-5-fluoro-N-(5-(1-methylpiperidin-4-yl)pyridin-2-yl)pyrimidin-2-amine]
–	–	0.02 to 0.2 µM	0.2 to 2 µM	CCN1CC2(C1)CN(c1ccc(Nc3ncc(F)c(-c4sc5c(C(C)C)nn(C)c(=O)c5c4C)n3)nc1)C2 [Example 63, 2-(2-((5-(6-Ethyl-2,6-diazaspiro[3.3]heptan-2-yl)pyridin-2-yl)amino)-5-fluoropyrimidin-4-yl)-7-isopropyl-3,5-dimethylthieno[2,3-d]pyridazin-4(5H)-one]
–	0.02 to 0.2 µM	0.02 to 0.2 µM	–	Cc1c(-c2nc(Nc3ccccn3)ncc2F)sc2c1nc(C)n2C(C)C [Example 66, 4-(2,6-Dimethyl-3-propan-2-ylthieno[2,3-d]imidazol-5-yl)-5-fluoro-N-pyridin-2-ylpyrimidin-2-amine]
–	–	≤ 0.02 µM	0.02 to 0.2 µM	Cc1c(-c2nc(Nc3ccc(N4CCN5CCC4CC5)cn3)ncc2F)sc2c(C(C)C)cn(C)c(=O)c12 [Example 83, 2-(2-((5-(1,4-Diazabicyclo[3,2.2]nonan-4-yl)pyridin-2-yl)amino)-5-fluoropyrimidin-4-yl)-7-isopropyl-3,5-dimethylthieno[3,2-c]pyridin-4(5H)-one]
–	–	0.02 to 0.2 µM	0.2 to 2 µM	CC(C)c1cn(C)c(=O)c2cc(-c3ccnc(Nc4ccc(C5CCN(C)CC5)cn4)n3)sc12 [Example 96, 7-Isopropyl-5-methyl-2-(2-((5-(1-methylpiperidin-4-yl)pyridine-2-yl)amino)pyrimidin-4-yl)thieno[3,2-c]pyridin-4(5H)-one]
–	–	≤ 0.02 µM	0.02 to 0.2 µM	Cc1c(-c2nc(Nc3ccc(C4CC[N+](C)([O-])CC4)cn3)ncc2F)sc2c(C(C)C)cn(C)c(=O)c12 (stereo not shown) [Example 98, 4-(6-((5-Fluoro-4-(7-isopropyl-3,5-dimethyl-4-oxo-4,5-dihydrothieno[3,2-c]pyridin-2-yl)pyrimidin-2-yl)amino)pyridin-3-yl)-1-methylpiperidine 1-oxide]
–	–	0.02 to 0.2 µM	0.2 to 2 µM	CCN1CCN(Cc2ccc(Nc3ncc(F)c(-c4sc5c(C(C)C)[nH]nc5c4C)n3)nc2)CC1 [Example 100, N-(5-((4-Ethylpiperazin-1-yl)methyl)pyridin-2-yl)-5-fluoro-4-(3-isopropyl-6-methyl-2H-thieno[3,2-c]pyrazol-5-yl)pyrimidin-2-amine]
–	–	≤ 0.02 µM	0.02 to 0.2 µM	CCN1CC2(C1)CN(c1ccc(Nc3ncc(F)c(-c4sc5c(C(C)(C)OC)n(C)nc5c4C)n3)nc1)C2 [Example 105, N-(5-(6-Ethyl-2,6-diazaspiro[3.3]heptan-2-yl)pyridin-2-yl)-5-fluoro-4-(3-(2-methoxypropan-2-yl)-2,6-dimethyl-2H-thieno[3,2-c]pyrazol-5-yl)pyrimidin-2-amine]
–	–	0.02 to 0.2 µM	0.02 to 0.2 µM	CCN1CC2(C1)CN(c1ccc(Nc3ncc(F)c(-c4sc5c(nc(N(C)C)n5C(C)C)c4C)n3)nc1)C2 [Example 111, 5-(2-((5-(6-Ethyl-2,6-diazaspiro[3.3]heptan-2-yl)pyridin-2-yl)amino)-5-fluoropyrimidin-4-yl)-3-isopropyl-N,N,6-trimethyl-3H-thieno[2,3-d]imidazol-2-amine]
0.02 to 0.2 µM	–	≤ 0.02 µM	–	Cc1c(-c2nc(Nc3ccc(C4CN(C)CCO4)cn3)ncc2F)sc2c1nc(C)n2C(C)C (stereo not shown) [Example 115, 5-Fluoro-4-(3-isopropyl-2,6-dimethyl-3H-thieno[2,3-d]imidazol-5-yl)-N-(5-(4-methylmorpholin-2-yl)pyridin-2-yl)pyrimidin-2-amine]
